Laboratory results reported in the supplement of paper PMC10307832.

Compound: CC(C)N(CCCNC(=O)Nc1ccc(C(C)(C)C)cc1)C[C@H]1O[C@@H](n2ccc3c(N)ncnc32)[C@H](O)[C@@H]1O + O=C(c1cc(Cc2n[nH]c(=O)c3ccccc23)ccc1F)N1CCN(C(=O)C2CC2)CC1 [Olaparib] (partner 8 µM)
Assay: relative viability (nuclei count vs DMSO), 5 days (fraction); higher = more cells survive
Details: first compound 8 µM
Outline: (§1)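 For relative viability, nuclei counts in treated wells were divided by those in vehicle wells. Lung cancer cell lines had been pin-tool dosed in 1536-well plates the day after seeding and cultured for 5 days, then fixed and stained in one step (final 0.05% Triton X-100, 1% formaldehyde, 1 ug/ml Hoechst) and imaged at 4×. Doses were one drug alone or a fixed anchor-drug dose plus five library-drug doses (not always all listed) in √10 steps, and values are duplicate-plate medians.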

Cell Line	relative viability
NCI-H2347	0.548
NCI-H1299	0.923
NCI-H661	0.729
CAL-12T	0.723
NCI-H1651	0.173
EPLC-272H	0.859
NCI-H23	0.28
NCI-H1792	0.399
NCI-H1355	0.716
NCI-H322M	0.625
NCI-H1437	0.561
NCI-H1755	0.793
NCI-H2085	0.763
HCC-15	0.709
NCI-H1793	0.739
RERF-LC-KJ	0.963
EKVX	0.752

Compound: CC(C)N(CCCNC(=O)Nc1ccc(C(C)(C)C)cc1)C[C@H]1O[C@@H](n2ccc3c(N)ncnc32)[C@H](O)[C@@H]1O + CC(=O)c1c(C)c2cnc(Nc3ccc(N4CCNCC4)cn3)nc2n(C2CCCC2)c1=O [Palbociclib] (partner 0.5 µM)
Assay: as above
Details: first compound 0.08 µM
Outline: as §1

Cell Line	relative viability
NCI-H2342	0.556
PC-14	0.467
NCI-H1650	0.38
NCI-H2009	0.148
NCI-H1993	0.616
NCI-H520	0.237
PC-3 [JPC-3]	0.54
LCLC-103H	0.488
NCI-H647	0.35
NCI-H2228	0.789
EMC-BAC-2	0.507
NCI-H2087	0.29
HCC-366	0.34
NCI-H1666	0.64
NCI-H650	0.349
NCI-H2126	0.358
NCI-H1648	0.268
SK-MES-1	0.317
H3255	0.328
COR-L23	0.302
COR-L 105	0.402

Cell Line	relative viability
LOU-NH91	0.538
ChaGo-K-1	0.887
NCI-H2170	0.407
NCI-H3122	0.204
HOP-62	0.46
HCC-44	0.968
NCI-H522	0.85
LU99A	0.399
BEN	0.446
HARA	0.249
SW 900	0.564
HCC-78	0.391
NCI-H441	0.203
LCLC-97TM1	0.195
NCI-H2023	0.458
A-427	0.525
NCI-H460	0.207
NCI-H838	0.217
NCI-H1734	0.328
NCI-H2405	0.515
NCI-H1395	0.587

Cell Line	relative viability
201T	0.338
NCI-H1915	0.517
HCC-827	0.22
LXF-289	0.705
NCI-H2347	0.423
NCI-H661	0.395
CAL-12T	0.418
NCI-H1651	0.497
EPLC-272H	0.365
NCI-H23	0.517
NCI-H1792	0.631
NCI-H1355	0.379
NCI-H322M	0.481
NCI-H1437	0.299
NCI-H1755	0.437
NCI-H2085	0.47
HCC-15	0.759
NCI-H1793	0.295
RERF-LC-KJ	1.01
EKVX	0.418

Same assay, conditions: first compound 0.253 µM

Cell Line	relative viability
NCI-H2342	0.533
PC-14	0.439
NCI-H1650	0.431
NCI-H2009	0.198
NCI-H520	0.196
PC-3 [JPC-3]	0.53
LCLC-103H	0.47
NCI-H647	0.396
NCI-H2228	0.56
EMC-BAC-2	0.499
NCI-H2087	0.235
HCC-366	0.372
NCI-H1666	0.634
NCI-H650	0.339
LK-2	0.665
NCI-H2126	0.366
NCI-H1648	0.315
SK-MES-1	0.357
H3255	0.33
COR-L23	0.296

Cell Line	relative viability
COR-L 105	0.397
LOU-NH91	0.503
ChaGo-K-1	0.96
NCI-H2170	0.399
NCI-H3122	0.162
HOP-62	0.37
HCC-44	1.05
NCI-H522	1.05
LU99A	0.387
BEN	0.509
HARA	0.223
SW 900	0.521
HCC-78	0.484
NCI-H441	0.186
LCLC-97TM1	0.247
NCI-H2023	0.312
A-427	0.546
NCI-H460	0.201
NCI-H838	0.178
NCI-H1734	0.385

Cell Line	relative viability
NCI-H2405	0.539
NCI-H1395	0.59
201T	0.352
NCI-H1915	0.543
HCC-827	0.468
LXF-289	0.591
NCI-H2347	0.44
NCI-H661	0.437
CAL-12T	0.341
NCI-H1651	0.485
EPLC-272H	0.342
NCI-H1792	0.671
NCI-H1355	0.427
NCI-H322M	0.488
NCI-H1437	0.289
NCI-H1755	0.435
NCI-H2085	0.48
HCC-15	0.709
RERF-LC-KJ	1.07
EKVX	0.346

Same assay, conditions: first compound 0.8 µM

Cell Line	relative viability
NCI-H2342	0.481
PC-14	0.586
NCI-H1650	0.131
NCI-H2009	0.184
NCI-H1993	0.57
NCI-H520	0.191
LCLC-103H	0.438
NCI-H647	0.3
NCI-H2228	0.643
EMC-BAC-2	0.512
NCI-H2087	0.276
HCC-366	0.41
NCI-H1666	0.659
NCI-H650	0.323
LK-2	0.845
NCI-H2126	0.355
NCI-H1648	0.335
SK-MES-1	0.309
H3255	0.308
COR-L23	0.265
COR-L 105	0.414
ChaGo-K-1	0.959
